Test results from patent publication US4100346A, “Certain 7(o-amino-methyl- or methylaminomethylphenyl- or cyclohexadienyl- or thienylacetamide)-3[1-carboxymethyl-(or ethyl- or propyl-)-tetrazol-5-ylthiomethyl]-3-cephem-4-carboxylic acids” (Bristol-Myers Company, priority 1976, dated 1978).
In brackets after ≈: the same amount, converted by molar mass. Counter-ions that a name gives are not always drawn. One block for each molecule: values may come before it.

How the values were obtained:
[1] = Solubility in water, buffer or urine
[2] = Stability of aqueous solutions at room temperature (loss of activity)
physchem = details: solid
D. pneumoniae = assay: MIC by Tube Dilution Technique in Nutrient Broth (Example 9 table); type: cell-based; details: Streptococcus pneumoniae; Dp-4 D. pneumoniae A9585
Description: (§1) MIC (mcg./ml.) by Tube Dilution Technique in Nutrient Broth.

E. cloacae = assay: as above; type: cell-based; details: Enterobacter cloacae; El-1 E. cloacae A9656
Description: as §1

E. coli [3] = assay: as above; type: cell-based; details: Escherichia coli
Description: as §1

K. pneumoniae [4] = assay: as above; type: cell-based; details: Klebsiella pneumoniae
Description: as §1

P. aeruginosa = assay: as above; type: cell-based; details: Pseudomonas aeruginosa; P. aeruginosa A9843
Description: as §1

P. mirabilis = assay: as above; type: cell-based; details: Proteus mirabilis; Pm-2 P. mirabilis A9900
Description: as §1

P. morganii = assay: as above; type: cell-based; details: Morganella morganii; Pg-8 P. morganii A15153
Description: as §1

S. aureus [5] = assay: as above; type: cell-based; details: Staphylococcus aureus
Description: as §1

S. enteritidis = assay: as above; type: cell-based; details: Salmonella enterica; Se-1 S. enteritidis A9531
Description: as §1

S. marcescens = assay: as above; type: cell-based; details: Serratia marcescens; Sm-1 S. marcescens A20019
Description: as §1

S. pyogenes = assay: as above; type: cell-based; details: Streptococcus pyogenes; Sp-3 S. pyogenes A9604
Description: as §1

[6] = Solid stability at elevated temperatures
Str. pneumoniae = assay: M.I.C. by Tube Dilution in Nutrient Broth (Examples 1 and 2); type: cell-based; details: Streptococcus pneumoniae; Str. pneumoniae A9585 (10^-3 dilution of overnight broth culture); 45% Antibiotic Assay Broth + 50% Nutrient Broth + 5% serum
Description: (§2) *45% Antibiotic Assay Broth + 50% Nutrient Broth + 5% serum
(§3) **Dilution of overnight broth culture

Str. pyogenes = assay: as above; type: cell-based; details: Streptococcus pyogenes; Str. pyogenes A9604 (10^-3); 45% Antibiotic Assay Broth + 50% Nutrient Broth + 5% serum
Description: as §2, §3

E. coli [7] = assay: as above; type: cell-based; details: Escherichia coli
Description: (§4) | **Dilution of overnight broth culture

Ent. cloacae = assay: as above; type: cell-based; details: Enterobacter cloacae
Description: as §4

K. pneumoniae [8] = assay: as above; type: cell-based; details: Klebsiella pneumoniae
Description: as §4

Pr. mirabilis = assay: as above; type: cell-based; details: Proteus mirabilis; Pr. mirabilis A9900 (10^-4)
Description: as §4

Pr. morganii = assay: as above; type: cell-based; details: Morganella morganii; Pr. morganii A15153 (10^-4)
Description: as §4

Ps. aeruginosa = assay: as above; type: cell-based; details: Pseudomonas aeruginosa; read-out: M.I.C.
Description: as §4

S. aureus [9] = assay: as above; type: cell-based; details: Staphylococcus aureus
Description: as §4

Sal. enteritidis = assay: as above; type: cell-based; details: Salmonella enterica; Sal. enteritidis A9531 (10 ^4)
Description: as §4

Ser. marcescens = assay: as above; type: cell-based; details: Serratia marcescens; Ser. marcescens A20019 (10^-4)
Description: as §4

[10] = Blood level in mice after intramuscular injection (Example 7); type: in vivo; details: mouse, im, intramuscularly, 10 mg./kg. of body weight, at 15 minutes
Experimental: The IR and NMR were consistent with the title product, but indicated about 20% impurities, primarily starting material. When this compound was administered intramuscularly by injection at a dose of 10 mg./kg. of body weight in mice, a blood level of […]. was obtained at 15 minutes.

SMILES: NCc1ccccc1CC(=O)N[C@@H]1C(=O)N2C(C(=O)O)=C(CSc3nnnn3CC(=O)O)CS[C@H]12 [Example 8, Monosodium BL-S786 Dihydrate]
Solubility in water ([1]; water, Dihydrate): > 400 mg/mL
Stability of 250,000 unit/ml. solution ([2]; 24 hours at room temperature): No loss

SMILES: NCc1ccccc1CC(=O)N[C@@H]1C(=O)N2C(C(=O)O)=C(CSc3nnnn3CC(=O)O)CS[C@H]12 [BL-S786: L-Lysine Salt]
degraded at 730 h (physchem): < 10%

SMILES: Cn1nnnc1SCC1=C(C(=O)O)N2C(=O)[C@@H](NC(=O)[C@H](O)c3ccccc3)[C@H]2SC1 [Cefamandole]
MIC (D. pneumoniae): 0.08 µg/mL (≈ 0.173 µM)
MIC (E. cloacae): 50 µg/mL (≈ 108 µM)
MIC (E. coli [3]; Ec-1 E. coli NIHJ): 1.6 µg/mL (≈ 3.46 µM)
MIC (E. coli [3]; Ec-3 E. coli Juhl A15119): 0.8 µg/mL (≈ 1.73 µM)
MIC (E. coli [3]; Ec-58 E. coli A9675): 3.1 µg/mL (≈ 6.7 µM)
MIC (K. pneumoniae [4]; Kp-3 K. pneumoniae A9977): 0.8 µg/mL (≈ 1.73 µM)
MIC (K. pneumoniae [4]; Kp-4 K. pneumoniae A15130): 6.3 µg/mL (≈ 13.6 µM)
MIC (P. aeruginosa): > 100 µg/mL
MIC (P. mirabilis): 0.8 µg/mL (≈ 1.73 µM)
MIC (P. morganii): 3.1 µg/mL (≈ 6.7 µM)
MIC (S. aureus [5]; Sa-2 S. aureus +50% serum): 1.6 µg/mL (≈ 3.46 µM)
MIC (S. aureus [5]; Sa-2 S. aureus Smith A9537): 0.8 µg/mL (≈ 1.73 µM)
MIC (S. aureus [5]; Sa-11 S. aureus BX-1633 A9606): 1.6 µg/mL (≈ 3.46 µM)
MIC (S. aureus [5]; Sa-44 S. aureus A15097): 3.1 µg/mL (≈ 6.7 µM)
MIC (S. enteritidis): 0.4 µg/mL (≈ 0.865 µM)
MIC (S. marcescens): > 100 µg/mL
MIC (S. pyogenes): 0.08 µg/mL (≈ 0.173 µM)

lowest pH able to dissolve 150 mg./ml. ([1]; room temperature): 10.3
solubility ([1]; solubility, in both buffered aqueous media and in dog urine at room temperature): 1 to 3 mg/mL (≈ 2100 to 6310 µM)
SMILES: Cn1nnnc1SCC1=C(C(=O)O)N2C(=O)[C@@H](NC(=O)Cc3ccccc3CN)[C@H]2SC1 [7-(o-aminomethylphenylacetamido)-3-(1-methyl-1,2,3,4-tetrazol-5-ylthiomethyl)-3-cephem-4-carboxylic acid]

SMILES: CNCc1ccsc1CC(=O)N[C@@H]1C(=O)N2C(C(=O)O)=C(CSc3nnnn3CC(=O)O)CS[C@H]12 [Example 9, 7-(3-N-methylaminomethyl-2-thienylacetamido)-3-(1-carboxymethyltetrazol-5-ylthiomethyl)-3-cephem-4-carboxylic Acid]
MIC (D. pneumoniae): 0.08 µg/mL (≈ 0.148 µM)
MIC (E. cloacae): 50 µg/mL (≈ 92.7 µM)
MIC (E. coli [3]; Ec-1 E. coli NIHJ): 0.8 µg/mL (≈ 1.48 µM)
MIC (E. coli [3]; Ec-3 E. coli Juhl A15119): 0.8 µg/mL (≈ 1.48 µM)
MIC (E. coli [3]; Ec-58 E. coli A9675): 12.5 µg/mL (≈ 23.2 µM)
MIC (K. pneumoniae [4]; Kp-3 K. pneumoniae A9977): 0.2 µg/mL (≈ 0.371 µM)
MIC (K. pneumoniae [4]; Kp-4 K. pneumoniae A15130): 1.6 µg/mL (≈ 2.97 µM)
MIC (P. aeruginosa): > 100 µg/mL
MIC (P. mirabilis): 0.4 µg/mL (≈ 0.741 µM)
MIC (P. morganii): 12.5 µg/mL (≈ 23.2 µM)
MIC (S. aureus [5]; Sa-2 S. aureus +50% serum): 3.1 µg/mL (≈ 5.74 µM)
MIC (S. aureus [5]; Sa-2 S. aureus Smith A9537): 3.1 µg/mL (≈ 5.74 µM)
MIC (S. aureus [5]; Sa-11 S. aureus BX-1633 A9606): 6.3 µg/mL (≈ 11.7 µM)
MIC (S. aureus [5]; Sa-44 S. aureus A15097): 12.5 µg/mL (≈ 23.2 µM)
MIC (S. enteritidis): 0.2 µg/mL (≈ 0.371 µM)
MIC (S. marcescens): > 100 µg/mL
MIC (S. pyogenes): 0.08 µg/mL (≈ 0.148 µM)

SMILES: NCc1ccccc1CC(=O)N[C@@H]1C(=O)N2C(C(=O)O)=C(CSc3nnnn3CC(=O)O)CS[C@H]12 [Example 3]
solubility ([1]; water, Solubility in water): > 500 mg/mL
relative stability of the solid at elevated temperatures [6]: not as stable at elevated temperatures
loss of activity in solution ([2]; 125.0 mg./ml. at pH 7.0, room temperature, at least 24 hours): no significant loss
Stability in water (time stable) ([2]; room temperature at 250 mg./ml.): at least 24 hours

SMILES: NCC1=C(CC(=O)N[C@@H]2C(=O)N3C(C(=O)O)=C(CSc4nnnn4CC(=O)O)CS[C@H]23)CC=CC1 [Example 2, 7-(2-Aminomethyl-1,4-cyclohexadienylacetamido)-3-(1-carboxymethyltetrazol-5-ylthiomethyl)-3-cephem-4-carboxylic acid]
MIC (Str. pneumoniae): 0.06 µg/mL
MIC (Str. pyogenes): 0.13 µg/mL
MIC (E. coli [7]; E. coli A9675 (10^-4)): 16 µg/mL (≈ 30.7 µM)
MIC (E. coli [7]; E. coli Juhl A15119 (10^-4)): 1.3 µg/mL (≈ 2.49 µM)
MIC (Ent. cloacae; Ent. cloacae A9657 (10^-4)): 0.3 µg/mL (≈ 0.575 µM)
MIC (Ent. cloacae; Ent. cloacae A9659 (10^-4)): 32 µg/mL (≈ 61.4 µM)
MIC (Ent. cloacae; Ent. cloacae A9656 (10^-4)): > 125 µg/mL
MIC (K. pneumoniae [8]; K. pneumoniae A9977 (10^-4)): 0.3 µg/mL (≈ 0.575 µM)
MIC (K. pneumoniae [8]; K. pneumoniae A15130 (10^-4)): 2 µg/mL (≈ 3.83 µM)
MIC (Pr. mirabilis): 0.3 µg/mL (≈ 0.575 µM)
MIC (Pr. morganii): 8 µg/mL (≈ 15.3 µM)
MIC (Ps. aeruginosa): > 125 µg/mL
MIC (S. aureus [9]; S. aureus BX1633 A9606 (10^-2)): 2.5 µg/mL (≈ 4.79 µM)
MIC (S. aureus [9]; S. aureus BX1633 A9606 (10^-3)): 1.3 µg/mL (≈ 2.49 µM)
MIC (S. aureus [9]; S. aureus Meth-Res A15097 (10^-3)): 4 µg/mL (≈ 7.67 µM)
MIC (S. aureus [9]; S. aureus Smith A9537 (10^-4)): 0.5 µg/mL (≈ 0.959 µM)
MIC (S. aureus [9]; S. aureus-50% serum A9537 (10^-4)): > 0.5 µg/mL
MIC (Sal. enteritidis): 0.16 µg/mL (≈ 0.307 µM)
MIC (Ser. marcescens): > 125 µg/mL

concentration at 0.25 h [10]: 22300 µg/mL
SMILES: NCc1ccccc1CC(=O)N[C@@H]1C(=O)N2C(C(=O)O)=C(CSc3nnnn3CCC(=O)O)CS[C@H]12 [Example 7, 7-(2-aminomethylphenylacetamido)-3-(1-carboxyethyltetrazol-5-ylthiomethyl)-3-cephem-4-carboxylic acid]
